Article PMC11927960, “Multiparameter ranking of carbazoles for anti-trypanosome lead discovery” (Frontiers in drug discovery, 2024)
pEC50: −log10 of the molar value. ≈ marks a conversion by molar mass, not a printed value.

Tests used:
[1] = Thermodynamic aqueous solubility (pH 7.4); type: physicochemical; settings: aqueous buffer, thermodynamic from solid, phosphate buffer pH 7.4, 25 °C, 20–24 h
Procedure: Thermodynamic aqueous solubility (pH 7.4).
Various amounts of compounds in powdered form were added to phosphate buffer (0.1 M, pH 7.4). Suspensions were kept on a shaker at 25 °C for 20–24 h. After centrifugation, compounds in the supernatant were quantified using LC-MS/MS.

[2] = Human liver microsome intrinsic clearance (HLM Clint); type: in vitro ADME; settings: human liver microsomes, 37 °C
Procedure: Intrinsic metabolic clearance.
The test compound was added to a final concentration of 1 μM, and the residual concentrations were tracked with LC-MS/MS at defined time points.

T. brucei Lister427 = test: Trypanosome proliferation inhibition assay (SYBR Green, 48 h); type: cell-based; settings: Trypanosoma brucei; continuous exposure 48 h, 4 × 10^3 trypanosomes/mL
Procedure: Trypanosome proliferation inhibition assays
T. b. Lister 427 or T. b. AnTat1.1 were seeded at 4 × 10^3 cells/mL or 2 × 10^3 cells/mL (in 50 μL culture medium), respectively, into 384-well black plate (Greiner; Frickenhausen, Germany) and treated with serial dilutions of each compound in duplicate. Plates were incubated for 48 h at 37 °C and 5% CO2. […] Fluorescence in lysates was quantitated with a fluorometer (Fluoroskan Ascent Microplate Fluorometer, Thermo Scientific) (100 ms; ex: 485 nm, em: 538 nm). Each experiment was performed in triplicate.

[3] = tested on: protein synthesis in Trypanosoma brucei; test: Protein synthesis (HPG incorporation); type: cell-based; settings: for Protein Synthesis affected: DTC50 as printed in Table S3; for Effect on protein synthesis: DTC90; for Residual Translation: DTC90 of curaxin 15 min, then 60 min HPG, 1 minus inhibition vs DMSO
Procedure: FIGURE 3 Effect of curaxins on protein synthesis in Trypanosoma brucei: T. b. brucei (5 × 10^5/mL) was treated with DMSO (D: 0.1%), DTC90 of CBL0174 ([…]), or CBL0187 (600 nM) for 15 min, followed by 60-min incubation with L-Homopropargylglycine (HPG; 4 μM). Incorporated HPG was clicked to azide-Alexa Fluor-488. […] (A) Proteins were transferred to the PVDF membrane and stained for total protein (using LI-COR® Revert™ 700 Total Protein Stain). (B) The membrane was blocked with Intercept® (PBS) blocking buffer and reacted with azide-PEG3-biotin conjugate that was detected with Streptavidin IRDye® 800CW (1: 2500 dilution). (C) Quantitation of HPG signal normalized to total protein loaded per lane. Statistical significance of differences in mean total HPG incorporation (normalized to total protein) was determined with Student’s t-test.
Mid-logarithmic phase trypanosomes were rinsed and resuspended (5×10^5 cells/mL) in methionine-free RPMI supplemented with 10% fetal bovine serum (FBS). Cells were treated with DTC25 or DTC90 concentrations of CBL0174 or CBL0187 for 15 min, followed by 1-h incubation with 4 μM (final concentration) L-Homopropargylglycine (HPG) (Cayman Chemical). Cells were washed with PBS-G (PBS containing 10 mM glucose), pelleted, and resuspended (~5 × 10^6 cells) in 50 μL of permeabilization buffer (50 mM HEPES pH 7.4, 0.025% NP-40) on ice for 30 min. The pellet was mixed with 50 μL “Click-iT reaction” cocktail (20 mM Tris buffer, pH 7.4, 5 mM CuSO4, 300 mM ascorbic acid, 140 mM NaCl, and 17.5 μM azide-PEG-biotin) at room temperature for 1 h. […] HPG-labeled proteins were detected with Streptavidin IRDye® 800CW (1: 2500) and visualized on a Li-Cor® Odyssey CLx near-infrared fluorescence imaging system ([Sanz-Rodriguez et al., 2022]).

[4] = tested on: endocytosis of bovine serum albumin (BSA) in Trypanosoma brucei; type: cell-based; settings: DTC25; Table S3
Procedure: Cells were washed and resuspended in serum-free medium. Trypanosomes were incubated with fluorescent endocytosis ligands transferrin (Tf) or bovine serum albumin (BSA) for 30 min (37 °C). A flow cytometer was used to detect fluorescence intensity per cell. Propidium iodide (PI) was used to stain and gate out non-viable cells. Histograms present fluorescence intensity of Tf-AF488 (A) or BSA-AF647 (B) for every cell (n > 10,000 for each cargo) in DMSO or drug-treated samples. Points on the scatter plot represent mean fluorescence intensities of Tf (C) or BSA (D) from three biological replicates (calculated with FlowJo). Bars indicate mean ± SD. […]
Curaxin or DMSO-treated trypanosomes (5 × 10^5/mL) were washed with serum-free HMI-9 medium (500 uL). […] Cells were transferred to an ice-water bath, washed with cold PBS/G at 4 °C (3,000 g for 5 min), resuspended in PBS/G (500 μL) containing propidium iodide (3 μM), and analyzed on a flow cytometer (Beckman Coulter CytoFLEX S). FlowJo software (FlowJo, LLC) was used to gate trypanosomes based on size and shape (forward and side scatter features), and fluorescence intensity of endocytosed protein was measured in viable cells (negative for propidium iodide uptake). FlowJo software was used to determine the mean fluorescence intensity of each cargo in trypanosomes (at least 10,000 events). […]

T. brucei Lister 427 = test: Effect of 50% serum on curaxin inhibition of trypanosome proliferation; type: cell-based, Trypanosoma brucei; settings: 20, 35 or 50% FBS; Figure S3
Procedure: HMI-9 medium ([Hirumi and Hirumi, 1989]) was prepared with different final concentrations of fetal bovine serum (FBS) (20, 35, and 50%). T. brucei Lister 427 was cultured in each medium for at least 7 days. […] EC50 measurements were obtained from three independent experiments in each medium.
containing 20%, 35% or 50% FBS
At 0 h, 4x103 trypanosomes/ml in
media with drug; 37°C, 5% CO2
Cells lysed and SYBR green
Hirumi, 1989) was modified to contain 20, 35, or 50% fetal bovine serum (FBS) (total
concentration). T. b. brucei Lister 427 was first cultured in the medium for 7 days.
(50 µL). Plates were incubated for 48 h at 37 °C and 5% CO2, and the proliferation of
trypanosomes was measured using a SYBR green assay (Faria et al., 2015). Each experiment
was performed thrice, and non-linear regression fits to the data were obtained using GraphPad
Prism which was used to calculate EC50 values. The possible statistical significance of the
FBS-medium (control) was determined by Student’s T-test.

Row | Structure (SMILES) | solubility [1] [µM] | microsomal CLint at 1 μM [2] [µL/min/mg] | pEC50 (T. brucei Lister427) | Protein Synthesis affected [3] | Effect on protein synthesis [3] | Residual Translation [3] | Endocytosis BSA affected [4] | Effect of serum on anti-trypanosome potency (T. brucei Lister 427)
1 | CC(=O)c1cc2c3cc(C(C)=O)c(O)cc3n(CCCN(C)C)c2cc1O [CBL0174, 1-[6-acetyl-9-[3-(dimethylamino)propyl]-2,7-dihydroxy-carbazol-3-yl]ethanone] | 773 (≈ 285 µg/mL) | 4.89 | 7.68 | No | did not prevent mRNA translation | 0.94 | No | –
2 | CC(=O)c1cc2c3cc(C(C)=O)c(O)cc3n(CCNC(C)C)c2cc1O [CBL0187, 1-[6-acetyl-2,7-dihydroxy-9-[2-(isopropylamino)ethyl]carbazol-3-yl]ethanone] | 36.3 (≈ 13.4 µg/mL) | 12.4 | 8.05 | No | inhibited protein synthesis | 0.72 | No | decreases
